Test results from patent US20180344725A1, “QUINOLONE CHALCONE COMPOUNDS AND USES THEREOF” (priority 2015, published 2018).

What was measured:
H69AR = test: SRB-based cytotoxicity assay; format: cell-based, human; settings: for Resistance (fold): H69AR versus SW-1271; for IC50: Homo sapiens, H69AR, multidrug-resistant
Procedure: 1845B5 and MCF-10A non-cancer breast cell lines were cultured in DME/F12 medium supplemented with 10% fetal bovine serum, antibiotics and growth factors. […] The human small cell lung carcinoma H69 cell line and its multidrug-resistant MRP1-overexpressing isogenic H69AR cell line were purchased from ATCC. […] H69 cells grow as large multi-cell aggregates, making it difficult to accurately count cell numbers. […] The IL-6 dependent bortezomib-resistant ANBL6-BR cell line was further supplemented with 1 ng/ml of IL-6. The MCF10AT1 and MCF10CA1a cell lines are isogenic to the MCF10A cell line, and obtained from Dr. Valerie Weaver at the Center for Bioengineering and Tissue Regeneration, UCSF, CA, USA. […] The drug-resistant cells were cultured in the absence of drug for at least one passage before carrying out experiments. All cells were maintained in a humidified incubator at 37° C. […] Cell line authentication was performed using short tandem repeat (STR) profiling. […] Some wells were treated with 100 μl of 10% trichloroacetic acid (TCA) as a negative control and sham (medium with dimethyl sulfoxide; DMSO) treated cells were used as a positive control. […] TCA was removed and cells were washed with cold tap water, and plate was air-dried, followed by addition of 50 μl of 0.4% SRB staining solution to each well. After 30 minutes incubation, SRB staining solution was removed. Cells were washed with 1% acetic acid solution, and then washed with tap water to remove unbound staining solution, followed by air-drying. 200 μl of 10 mM (pH10.5) trizma base buffer was added to each well to solubilise macromolecules. […] Cell growth (inhibition) was calculated by the following formula: % cells proliferation=[(AT-CT)/(ST-CT)]×100 wherein AT=absorbance of treated cells, CT=absorbance of negative control cells, and ST=absorbance of sham treated cells. […] CI values were determined from four independent experiments.

Liver mitotic cells = format: in vivo, mice; settings: 30 days; 10 mg paclitaxel, 30 mg CTR, or paclitaxel (5 mg) + CTR (15 mg)
Procedure: ATH490 athymic mice were treated as indicated in the listed concentrations for 30 days (FIG. 45A), and then the liver cell proliferation analyzed by examining the number of mitotic cells (white arrows in FIG. 45A). “Tax” denotes paclitaxel. The numbers in the brackets in (FIG. 45B) are mg/kg body weight. […] However, this small increase is considered normal as the AST/ALT ratio is <3 (Table 14).

[1] = tested on: MDA-MB-231 human metastatic breast cancer cells; test: Anti-tumor activity in xenograft mice; format: in vivo; settings: Tax 10 mg/kg I.V. once/week, CTR 30 mg/kg I.P. every 3 days, or Tax 5 + CTR 15 mg/kg once/week
Procedure: Five-week old female CD-1 and ATH490 (strain code 490) athymic nude mice were purchased from Charles River (Quebec, Canada). The MDA-MB-231 human metastatic breast cancer cells were obtained from the American Tissue Culture Collection (ATCC, Manassas, Va., USA). Cells were maintained under humidified conditions at 37° C. and 5% CO2 in DMEM high glucose medium (ATCC) supplemented with 10% fetal bovine serum and antibiotics.
For paclitaxel treatments, 40 mg/ml stock solution of paclitaxel (Sigma, MO) was prepared in DMSO. Just before administration to mice, the paclitaxel stock solution was diluted ten-fold in a buffer containing 10% DMSO, 12.5% Cremophor, 12.5% ethanol, and 65% saline-based diluent (0.9% sodium chloride, 5% polyethylene glycol, and 0.5% tween-80) which is defined as vehicle (Huang et al., 2006). Alanine transaminase (ALT, SUP6001-c)/Aspartate transaminase (AST, SUP6002-c) color endpoint assay kits were purchased from ID Labs Biotechnology (London, Ontario, Canada). Elevation of ALT and AST levels in serum samples was used as an indicator of liver damage/injury.
To determine the anti-tumor activity of CTR compounds in animals, a xenograft model of human breast cancer cells in athymic nude mice was established. Exponentially growing MDA-MB-231 metastatic breast cancer cells were harvested and counted for inoculation into mice. Each mouse was subcutaneously injected at the flank with 10×10^6 cells in 0.2 ml ice cold 1×PBS. When tumor size reached 4-5 mm in diameter (n=4-5 per group), mice were randomly assigned into several groups as described herein.
Animals were monitored for food and water consumption every day, and their body weights and tumor volumes were measured twice per week. Tumor volumes were measured with a digital caliper and were determined by using the following formula: ½ length×width^2. Blood samples were collected via cardiac puncture and processed further for ALT and AST measurements. The animals were then immediately euthanized by carbon dioxide. Tumors and vital organs (spleen, kidney, liver and lung) were collected and fixed in 10% buffered formalin at 4° C. overnight before being processed for paraffin embedding. The paraffin-embedded blocks were then cut into 4-5 μm thick sections. Each section of tumors and organs was stained with hematoxylin and eosin (H&E).

[2] = Liver toxicity by AST and ALT; format: in vivo, mice; settings: serum
Procedure: For paclitaxel treatments, 40 mg/ml stock solution of paclitaxel (Sigma, MO) was prepared in DMSO. […] Alanine transaminase (ALT, SUP6001-c)/Aspartate transaminase (AST, SUP6002-c) color endpoint assay kits were purchased from ID Labs Biotechnology (London, Ontario, Canada). Elevation of ALT and AST levels in serum samples was used as an indicator of liver damage/injury. Animals were monitored for food and water consumption every day, and their body weights and tumor volumes were measured twice per week. […] Blood samples were collected via cardiac puncture and processed further for ALT and AST measurements. The animals were then immediately euthanized by carbon dioxide. […] The paraffin-embedded blocks were then cut into 4-5 μm thick sections. Each section of tumors and organs was stained with hematoxylin and eosin (H&E). Changes in body weight, hemoglobin (Hb) and the amount and ratio of alanine transaminase (ALT)/aspartate transaminase (AST) were used to measure toxic effects. In addition, vital organs (liver, spleen, kidney and lung) were analyzed by […] after they were harvested, fixed, processed, paraffin-embedded, sectioned, and stained as described above.

RPMI-8226BTZR = test: Killing of bortezomib-resistant multiple myeloma cells; format: cell-based
From the text: The RPMI-8226BTZR over-expresses β1, β2 and β5 peptides of the 20S subunit. […] However, RPMI-8226BTZR is sensitive to CTR-20, CTR-21 and CTR-32 (FIG. 36).

[3] = Paclitaxel 10 mg/kg, CTR 30 mg/kg, or Paclitaxel (5) + CTR (15)

| Compound | Resistance (fold) (H69AR) | IC50 (H69AR) [nM] | mitotic index in the liver (Liver mitotic cells) | tumor size (volume) ([1]; Day 0) [mm^3] | tumor size (volume) ([1]; Day 6) [mm^3] | tumor size (volume) ([1]; Day 14) [mm^3] | tumor size (volume) ([1]; Day 17) [mm^3] | tumor size (volume) ([1]; Day 20) [mm^3] | tumor size (volume) ([1]; Day 24) [mm^3] | tumor size (volume) ([1]; Day 27) [mm^3] | tumor size (volume) ([1]; Day 30) [mm^3] | ALT (IU/L) ([2]; CTR 20 mg/kg) | AST (IU/L) ([2]; CTR 20 mg/kg) | ALT (IU/L) [2, 3] [IU/L] | AST (IU/L) [2, 3] [IU/L] | sensitivity of RPMI-8226BTZR (RPMI-8226BTZR) |
| --- | --- | --- | --- | --- | --- | --- | --- | --- | --- | --- | --- | --- | --- | --- | --- | --- |
| COc1ccccc1C(=O)/C=C/c1cc2ccccc2[nH]c1=O [CTR-17, (E)-3-(3-(2-Methoxyphenyl)-3-oxoprop-1-enyl)quinolin-2(1H)-one] | 0.45 | 520 ± 100 | small increases in the mitotic index | 86.71 | 63.99 | 90.07 | 128.36 | 134.76 | 160.86 | 189.45 | 209.84 | 63.59 ± 9.73 | 101.00 ± 10.19 | 64.67 ± 5.26 | 114.13 ± 6.36 | – |
| CC(=O)O[C@H]1C(=O)[C@@]2(C)[C@H]([C@H](OC(=O)c3ccccc3)[C@]3(O)C[C@H](OC(=O)[C@H](O)[C@@H](NC(=O)c4ccccc4)c4ccccc4)C(C)=C1C3(C)C)[C@]1(OC(C)=O)CO[C@@H]1C[C@@H]2O [Paclitaxel, reference compound] | 2.44 | – | small increases in the mitotic index | 91.84 | 90.11 | 94.66 | 92.33 | 81.66 | 95.61 | 139.41 | 170.36 | – | – | 52.02 ± 2.59 | 111.14 ± 13.42 | – |
| COc1ccc2[nH]c(=O)c(/C=C/C(=O)c3ccccc3OC)cc2c1 [CTR-20, (E)-6-Methoxy-3-(3-(2-methoxyphenyl)-3-oxoprop-1-enyl) quinolin-2(1H)-one] | 0.13 | 130 ± 10 | small increases in the mitotic index | 92.51 | 69.89 | 84.64 | 97.11 | 97.22 | 106.26 | 124.88 | 140.63 | 56.77 ± 5.34 | 119.19 ± 4.03 | 50.50 ± 9.96 | 118.22 ± 17.00 | sensitive |
| COc1ccccc1C(=O)/C=C/c1cc2cccc(OC)c2[nH]c1=O [CTR-21, (E)-8-methoxy-3-(3-(2-methoxyphenyl)-3-oxoprop-1-enyl) quinolin-2(1H)-one] | – | – | – | – | – | – | – | – | – | – | – | – | – | – | – | sensitive |
| CCOc1ccccc1C(=O)/C=C/c1cc2ccccc2[nH]c1=O [CTR-32, (E)-3-(3-(2-ethoxyphenyl)-3-oxoprop-1-enyl)quinolin-2(1H)-one] | – | – | – | – | – | – | – | – | – | – | – | – | – | – | – | sensitive |
